PubChem BioAssay (NCI)
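Dose response: 5 concentrations. Exposure: 48 h. Format: 96-well plates. Endpoint: linear interpolation; highest concentration if not reached. At the TGI there is no net growth.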

Experiments:
Assay in all cases: NCI anticancer screen, dose series, 48 h
[1] = test system: SF-295 CNS
[2] = test system: NCI-H522 lung
[3] = test system: UO-31 renal
[4] = test system: HCT-116 colon
[5] = test system: SK-OV-3 ovarian
[6] = test system: HCT-15 colon
[7] = test system: PC-3 prostate
[8] = test system: HCC-2998 colon
[9] = test system: IGROV1 ovarian
[10] = test system: SK-MEL-5 melanoma
[11] = test system: SF-268 CNS
[12] = test system: SN12C renal
[13] = test system: KM12 colon
[14] = test system: M14 melanoma
[15] = test system: TK-10 renal
[16] = test system: COLO 205 colon
[17] = test system: HOP-62 NSCLC
[18] = test system: 786-0 renal
[19] = test system: SNB-19 CNS
[20] = test system: OVCAR-3 ovarian
[21] = test system: U251 CNS
[22] = test system: MDA-MB-435
[23] = test system: SK-MEL-28 melanoma
[24] = test system: UACC-62 melanoma
[25] = test system: MCF7 breast
[26] = test system: LOX IMVI melanoma
[27] = test system: DU-145 prostate
[28] = test system: MDA-N
[29] = test system: MOLT-4 leukemia
[30] = test system: NCI/ADR-RES ovarian
[31] = test system: MALME-3M melanoma
[32] = test system: SK-MEL-2 melanoma
[33] = test system: A549 NSCLC
[34] = test system: BT-549 breast
[35] = test system: SR leukemia
[36] = test system: NCI-H23 lung
[37] = test system: ACHN renal
[38] = test system: HT29 colon
[39] = test system: EKVX NSCLC
[40] = test system: HOP-92 NSCLC
[41] = test system: SW-620 colon
[42] = test system: NCI-H226 lung
[43] = test system: UACC-257 melanoma
[44] = test system: OVCAR-5 ovarian
[45] = test system: RPMI-8226 leukemia
[46] = test system: MDA-MB-231 breast
[47] = test system: SNB-75 CNS
[48] = test system: SF-539 CNS
[49] = test system: NCI-H460 lung
[50] = test system: A498 renal
[51] = test system: OVCAR-4 ovarian
[52] = test system: OVCAR-8 ovarian
[53] = test system: CAKI-1 renal
[54] = test system: CCRF-CEM leukemia
[55] = test system: RXF 393 renal
[56] = test system: K-562 leukemia
[57] = test system: T-47D breast
[58] = test system: HL-60(TB) leukemia
[59] = test system: HS 578T breast

## NC(N)=NS(=O)(=O)c1ccc(NC(=O)c2c3ccccc3nc3ccccc23)cc1
[1]
  TGI: > 100 µM
[2]
  TGI: > 100 µM
[3]
  TGI: > 100 µM
[4]
  TGI: > 100 µM
[5]
  TGI: > 100 µM
[6]
  TGI: > 100 µM
[7]
  TGI: > 100 µM
[8]
  TGI: > 100 µM
[9]
  TGI: > 100 µM
[10]
  TGI: > 100 µM
[11]
  TGI: > 100 µM
[12]
  TGI: > 100 µM
[13]
  TGI: > 100 µM
[14]
  TGI: > 100 µM
[15]
  TGI: > 100 µM
[16]
  TGI: > 100 µM
[17]
  TGI: > 100 µM
[18]
  TGI: > 100 µM
[19]
  TGI: > 100 µM
[20]
  TGI: > 100 µM
[21]
  TGI: > 100 µM
[22]
  TGI: > 100 µM
[23]
  TGI: > 100 µM
[24]
  TGI: > 100 µM
[25]
  TGI: > 100 µM
[26]
  TGI: > 100 µM
[27]
  TGI: > 100 µM
[28]
  TGI: > 100 µM
[29]
  TGI: > 100 µM
[30]
  TGI: > 100 µM
[31]
  TGI: > 100 µM
[32]
  TGI: > 100 µM
[33]
  TGI: > 100 µM
[34]
  TGI: > 100 µM
[35]
  TGI: > 100 µM
[36]
  TGI: > 100 µM
[37]
  TGI: > 100 µM
[38]
  TGI: > 100 µM
[39]
  TGI: > 100 µM
[40]
  TGI: > 100 µM
[41]
  TGI: > 100 µM
[42]
  TGI: > 100 µM
[43]
  TGI: > 100 µM
[44]
  TGI: > 100 µM
[45]
  TGI: > 100 µM
[46]
  TGI: > 100 µM
[47]
  TGI: > 100 µM
[48]
  TGI: > 100 µM
[49]
  TGI: > 100 µM
[50]
  TGI: > 100 µM
[51]
  TGI: > 100 µM
[52]
  TGI: > 100 µM
[53]
  TGI: > 100 µM
[54]
  TGI: > 100 µM

## N#Cc1ccc(NC(=NCC(=O)O)Nc2ccc3ccccc3c2)cc1
[1]
  TGI: > 10 µM
[5]
  TGI: > 10 µM
[6]
  TGI: > 10 µM
[7]
  TGI: > 10 µM
[55]
  TGI: > 10 µM
[8]
  TGI: > 10 µM
[9]
  TGI: > 10 µM
[10]
  TGI: > 10 µM
[11]
  TGI: > 10 µM
[12]
  TGI: > 10 µM
[13]
  TGI: > 10 µM
[14]
  TGI: > 10 µM
[15]
  TGI: > 10 µM
[16]
  TGI: > 10 µM
[17]
  TGI: > 10 µM
[18]
  TGI: > 10 µM
[23]
  TGI: > 10 µM
[24]
  TGI: > 10 µM
[25]
  TGI: > 10 µM
[56]
  TGI: > 10 µM
[27]
  TGI: > 10 µM
[28]
  TGI: > 10 µM
[29]
  TGI: > 10 µM
[31]
  TGI: > 10 µM
[33]
  TGI: > 10 µM
[57]
  TGI: > 10 µM
[35]
  TGI: > 10 µM
[36]
  TGI: > 10 µM
[38]
  TGI: > 10 µM
[39]
  TGI: > 10 µM
[41]
  TGI: > 10 µM
[43]
  TGI: > 10 µM
[58]
  TGI: > 10 µM
[45]
  TGI: > 10 µM
[46]
  TGI: > 10 µM
[47]
  TGI: > 10 µM
[52]
  TGI: > 10 µM
[53]
  TGI: > 10 µM
[54]
  TGI: > 10 µM

## CC(C)(Oc1ccc(C2C[C@H]2Cl)cc1)C(=O)O (some centres not stated)
[1]
  TGI: > 100 µM
[2]
  TGI: > 100 µM
[4]
  TGI: > 100 µM
[5]
  TGI: > 100 µM
[6]
  TGI: > 100 µM
[7]
  TGI: > 100 µM
[55]
  TGI: > 100 µM
[9]
  TGI: > 100 µM
[10]
  TGI: > 100 µM
[12]
  TGI: > 100 µM
[13]
  TGI: > 100 µM
[15]
  TGI: > 100 µM
[16]
  TGI: > 100 µM
[17]
  TGI: > 100 µM
[18]
  TGI: > 100 µM
[19]
  TGI: > 100 µM
[20]
  TGI: > 100 µM
[21]
  TGI: > 100 µM
[22]
  TGI: > 100 µM
[23]
  TGI: > 100 µM
[24]
  TGI: > 100 µM
[25]
  TGI: > 100 µM
[56]
  TGI: > 100 µM
[59]
  TGI: > 100 µM
[26]
  TGI: > 100 µM
[27]
  TGI: > 100 µM
[28]
  TGI: > 100 µM
[29]
  TGI: > 100 µM
[32]
  TGI: > 100 µM
[33]
  TGI: > 100 µM
[57]
  TGI: > 100 µM
[34]
  TGI: > 100 µM
[35]
  TGI: > 100 µM
[39]
  TGI: > 100 µM
[40]
  TGI: > 100 µM
[41]
  TGI: > 100 µM
[43]
  TGI: > 100 µM
[44]
  TGI: > 100 µM
[58]
  TGI: > 100 µM
[45]
  TGI: > 100 µM
[46]
  TGI: > 100 µM
[47]
  TGI: > 100 µM
[48]
  TGI: > 100 µM
[49]
  TGI: > 100 µM
[50]
  TGI: > 100 µM
[51]
  TGI: > 100 µM
[53]
  TGI: > 100 µM

## CSc1nc(Cl)c2c(n1)Sc1ncnn1C2O (configuration not stated)
[2]
  TGI: 4.23 µM
[3]
  TGI: 5.24 µM
[4]
  TGI: 17.1 µM
[5]
  TGI: 42.2 µM
[6]
  TGI: 18.4 µM
[7]
  TGI: 27.7 µM
[55]
  TGI: 5.63 µM
[8]
  TGI: 27.4 µM
[9]
  TGI: 34.2 µM
[11]
  TGI: 26.7 µM
[12]
  TGI: 24 µM
[14]
  TGI: 29 µM
[15]
  TGI: 31.2 µM
[16]
  TGI: 62.7 µM
[17]
  TGI: 41.1 µM
[18]
  TGI: 9.08 µM
[19]
  TGI: 45.2 µM
[20]
  TGI: 20.1 µM
[21]
  TGI: 33.9 µM
[22]
  TGI: 15.9 µM
[23]
  TGI: > 100 µM
[24]
  TGI: 26.3 µM
[25]
  TGI: 16 µM
[56]
  TGI: 30.6 µM
[59]
  TGI: 23.2 µM
[26]
  TGI: 21.1 µM
[27]
  TGI: 19.2 µM
[28]
  TGI: 20.5 µM
[29]
  TGI: 27.1 µM
[30]
  TGI: 54.6 µM
[31]
  TGI: 8.22 µM
[32]
  TGI: 41.8 µM
[33]
  TGI: 36.9 µM
[34]
  TGI: 28.8 µM
[35]
  TGI: > 100 µM
[36]
  TGI: 30.9 µM
[37]
  TGI: 15.4 µM
[38]
  TGI: 28.4 µM
[39]
  TGI: 36.3 µM
[40]
  TGI: 30.3 µM
[41]
  TGI: 36.3 µM
[43]
  TGI: 45.7 µM
[44]
  TGI: 32.3 µM
[58]
  TGI: 14.8 µM
[46]
  TGI: 31.6 µM
[48]
  TGI: 15.5 µM
[49]
  TGI: 46.4 µM
[50]
  TGI: 38.1 µM
[51]
  TGI: 29.6 µM
[52]
  TGI: 15.7 µM
[53]
  TGI: 25.4 µM
[54]
  TGI: 10.9 µM
